Results taken from US12240862B2, “Inhibitors of peptidylarginine deiminases” (Gilead Sciences, Inc., priority 2020, dated 2025).

Biological target: T1, human PAD4 (Homo sapiens, UniProt Q9UM07)
T1 construct: human PAD4 (NM_012387), A2P663, was PCR amplified; His-SUMO (N, cleaved yes); made in house; host or cells: E. coli BL21(DE3)
Test: In vitro PAD4 BAEE biochemical assay
Conditions: human PAD4, BAEE substrate; 5 nM PAD4, 2 mM calcium chloride, 3 mM BAEE; geometric mean of multiple experiments
Summary of the method: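 Ammonia generated from BAEE serves as the readout, measured by o-phthalaldehyde after EDTA termination. Final conditions: 5 nM human PAD4 (SUMO tag cleaved), 2 mM CaCl2, 3 mM BAEE, pH 7.6 MOPS buffer, 25 °C for 2 h following a 30-min compound preincubation.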

T1 sequence (Q9UM07 2-663): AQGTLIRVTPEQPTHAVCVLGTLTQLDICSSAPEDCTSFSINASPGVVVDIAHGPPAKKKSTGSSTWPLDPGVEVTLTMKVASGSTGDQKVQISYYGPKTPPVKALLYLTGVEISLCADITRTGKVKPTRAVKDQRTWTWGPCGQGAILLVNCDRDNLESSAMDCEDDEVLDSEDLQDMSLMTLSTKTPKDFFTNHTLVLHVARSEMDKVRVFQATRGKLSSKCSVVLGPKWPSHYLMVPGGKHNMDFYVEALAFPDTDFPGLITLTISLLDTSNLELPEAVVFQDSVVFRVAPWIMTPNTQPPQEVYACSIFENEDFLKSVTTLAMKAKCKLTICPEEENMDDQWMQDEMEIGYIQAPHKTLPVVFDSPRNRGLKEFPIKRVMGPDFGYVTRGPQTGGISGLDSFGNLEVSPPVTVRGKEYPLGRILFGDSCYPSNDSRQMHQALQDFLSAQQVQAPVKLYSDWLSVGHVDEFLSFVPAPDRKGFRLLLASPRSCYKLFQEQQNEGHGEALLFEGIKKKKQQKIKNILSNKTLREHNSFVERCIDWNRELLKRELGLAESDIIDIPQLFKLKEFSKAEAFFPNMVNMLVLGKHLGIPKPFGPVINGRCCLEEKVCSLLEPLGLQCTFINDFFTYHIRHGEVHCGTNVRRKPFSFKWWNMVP

IC50 [nM] | Molecule
84.8 | COc1cc(C(=O)N2[C@H]3CC[C@@H]2[C@H](N)C3)cc2nc(-c3cc4ccc(N(C(F)F)S(C)(=O)=O)nc4n3CC3CC3)c(C)n12 [Example 389, N-(2-(7-((1R,2R,4S)-2-amino-7-azabicyclo[2.2.1]heptane-7-carbonyl)-5-methoxy-3-methylimidazo[1,2-a]pyridin-2-yl)-1-(cyclopropylmethyl)-1H-pyrrolo[2,3-b]pyridin-6-yl)-N-(difluoromethyl)methanesulfonamide]
9400 | (2~{S})-2-[2-[7-[(3~{R})-3- aminopiperidine-1- carbonyl]-5-methoxy-3- methylimidazo[1,2- a]pyridin-2-yl]-1- (cyclopropylmethyl)pyrrolo [2,3-b]pyridin-6-yl] oxy-~{N}- methylpropanamide [Example 630]
24700 | COc1cc(C(=O)N2CCC3(CNC3)C2)cc2nc(-c3cc4ccc(N(C(F)F)S(C)(=O)=O)nc4n3CC3CC3)c(C)n12 [Example 380, ~{N}-[1-(cyclopropylmethyl)-2-[7-(2,6-diazaspiro[3.4]octane-6-carbonyl)-5-methoxy-3-methylimidazo[1,2-a]pyridin-2-yl]pyrrolo[2,3-b]pyridin-6-yl]-~{N}-(difluoromethyl) methanesulfonamide]
686 | COc1cc(C(=O)N2CCC[C@@H](N)C2)cc2nc(-c3cc4ccc(O[C@H](C)C(=O)N(C)C)nc4n3CC3CC3)c(C)n12 [Example 619, (2~{R})-2-[2-[7-[(3~{R})-3-aminopiperidine-1-carbonyl]-5-methoxy-3-methylimidazo [1,2-a]pyridin-2-yl]-1-(cyclopropylmethyl)pyrrolo [2,3-b]pyridin-6-yl]oxy-~{N},~{N}-dimethylpropanamide]
56.2 | COc1cc(C(=O)N2[C@H]3CC[C@@H]2[C@H](N)C3)cc2nc(-c3cc4ccc([C@@H](C)NC(=O)CCN5C(=O)NC(C)(C)C5=O)nc4n3CC3CC3)c(C)n12 [Example 148, ~{N}-[(1~{R})-1-[2-[7-[(1~{R},2~{R},4~{S})-2-amino-7-azabicyclo[2.2.1]heptane-7-carbonyl]-5-methoxy-3-methylimidazo [1,2-a]pyridin-2-yl]-1-(cyclopropylmethyl)pyrrolo [2,3-b]pyridin-6-yl]ethyl]-3-(4,4-dimethyl-2,5-dioxoimidazolidin-1-yl)propenamide]
127 | COc1cc(C(=O)N2[C@H]3CC[C@@H]2[C@H](N)C3)cc2nc(-c3cc4ccc([C@@H](C)NC(=O)C(C)C(F)(F)F)nc4n3CC3CC3)c(C)n12 (some centres unmarked) [Example 7, ~{N}-[(1~{R})-1-[2-[7-[(1~{R},2~{R},4~{S})-2-amino-7-azabicyclo [2.2.1]heptane-7-carbonyl]-5-methoxy-3-methylimidazo [1,2-a]pyridin-2-yl]-1-(cyclopropylmethyl)pyrrolo[2,3-b]pyridin-6-yl]ethyl]-3,3,3-trifluoro-2-methylpropanamide]
64.5 | COc1cc(C(=O)N2[C@H]3CC[C@@H]2[C@H](N)C3)cc2nc(-c3cc4ccc([C@@H](C)NC(=O)NC5(C)CC(F)(F)C5)nc4n3CC3CC3)c(C)n12 [Example 212, 1-[(1~{R})-1-[2-[7-[(1~{R},2~{R},4~{S})-2-amino-7-azabicyclo[2.2.1]heptane-7-carbonyl]-5-methoxy-3-methylimidazo [1,2-a]pyridin-2-yl]-1-(cyclopropylmethyl)pyrrolo [2,3-b]pyridin-6-yl]ethyl]-3-(3,3-difluoro-1-methylcyclobutyl)urea]
123 | CC[C@@](C)(O)c1ccc2cc(-c3nc4cc(C(=O)N5[C@H]6CC[C@@H]5[C@H](N)C6)cc(OC)n4c3C)n(CC3CC3)c2n1 [Example 566, [(1~{R},2~{R},4~{S})-2-amino-7-azabicyclo [2.2.1]heptan-7-yl]-[2-[1-(cyclopropylmethyl)-6-[(2~{R})-2-hydroxybutan-2-yl]pyrrolo[2,3-b]pyridin-2-yl]-5-methoxy-3-methylimidazo [1,2-a]pyridin-7-yl]methanone]

Further lines, the molecule ahead of its results:

Molecule | IC50 [nM]
COc1cc(C(=O)N2[C@H]3CC[C@@H]2[C@H](N)C3)cc2nc(-c3cc4ccc([C@@H](C)NC(=O)c5ccc(F)cc5F)nc4n3CC3CC3)c(C)n12 [Example 56, ~{N}-[(1~{R})-1-[2-[7-[(1~{R},2~{R}, 4~{S})-2-amino-7-azabicyclo[2.2.1]heptane-7-carbonyl]-5-methoxy-3-methylimidazo[1,2-a]pyridin-2-yl]-1-(cyclopropylmethyl)pyrrolo[2,3-b]pyridin-6-yl]ethyl]-2,4-difluorobenzamide] | 254
COc1cc(C(=O)N2[C@H]3CCC[C@@H]2[C@H](N)C3)cc2nc(-c3cc4ccc(N(C(F)F)S(C)(=O)=O)nc4n3CC3CC3)c(C)n12 [Example 332, N-[2-[7-[(1S,5R,6R)-6-amino-8-azabicyclo[3.2.1]octane-8-carbonyl]-5-methoxy-3-methyl-imidazo [1,2-a]pyridin-2-yl]-1-(cyclopropylmethyl)pyrrolo [2,3-b]pyridin-6-yl]-N-(difluoromethyl) methanesulfonamide] | 390
COc1cc(C(=O)N2[C@H]3CC[C@@H]2[C@H](N)C3)cc2nc(-c3cc4ccc(N5CCCCCS5(=O)=O)nc4n3CC3CC3)c(C)n12 [Example 459, [(1~{R},2~{R},4~{S})-2-amino-7-azabicyclo [2.2.1]heptan-7-yl]-[2-[1-(cyclopropylmethyl)-6-(1,1-dioxothiazepan-2-yl)pyrrolo[2,3-b]pyridin-2-yl]-5-methoxy-3-methylimidazo[1,2-a]pyridin-7-yl]methanone] | 28
CCc1c(-c2cc3ccc(N(C(F)F)S(C)(=O)=O)nc3n2CC2CC2)nc2cc(C(=O)N3CCC[C@@H](N)C3)cc(OC)n12 [Example 399, ~{N}-[2-[7-[(3~{R})-3-aminopiperidine-1-carbonyl]-3-ethyl-5-methoxyimidazo[1,2-a]pyridin-2-yl]-1-(cyclopropylmethyl)pyrrolo [2,3-b]pyridin-6-yl]-~{N}-(difluoromethyl) methanesulfonamide] | 285
CCC(C)(O)c1ccc2cc(-c3nc4cc(C(=O)N5[C@H]6CC[C@@H]5[C@H](N)C6)cc(OC)n4c3C)n(CC3CC3)c2n1 (some centres unmarked) [Example 572, [(1~{R},2~{R},4~{S})-2-amino-7-azabicyclo [2.2.1]heptan-7-yl]-[2-[1-(cyclopropylmethyl)-6-(2-hydroxybutan-2-yl)pyrrolo [2,3-b]pyridin-2-yl]-5-methoxy-3-methylimidazo[1,2-a]pyridin-7-yl]methanone] | 152
COc1cc(C(=O)N2[C@H]3CC[C@@H]2[C@H](N)C3)cc2nc(-c3cc4ccc(C(C)CC(N)=O)nc4n3CC3CC3)c(C)n12 (some centres unmarked) [Example 520, 3-[2-[7-[(1~{R},2~{R}, 4~{S})-2-amino-7-azabicyclo[2.2.1]heptane-7-carbonyl]-5-methoxy-3-methylimidazo[1,2-a]pyridin-2-yl]-1-(cyclopropylmethyl)pyrrolo[2,3-b]pyridin-6-yl]butanamide] | 73.8
COc1cc(C(=O)N2CC[C@H]3OCCN[C@H]3C2)cc2nc(-c3cc4ccc(N(C(F)F)S(C)(=O)=O)nc4n3CC3CC3)c(C)n12 [Example 383, ~{N}-[2-[7-[(4~{a}~{S},8~{a}~{R})-2,3,4,4~{a},5,7,8,8~{a}-octahydropyrido[4,3-b][1,4]oxazine-6-carbonyl]-5-methoxy-3-methylimidazo[1,2-a]pyridin-2-yl]-1-(cyclopropylmethyl)pyrrolo[2,3-b]pyridin-6-yl]-~{N}-(difluoromethyl) methanesulfonamide] | 447
COc1cc(C(=O)N2[C@H]3CC[C@@H]2[C@H](N)C3)cc2nc(-c3cc4ccc(-c5ccccc5C)nc4n3CC3CC3)c(C)n12 [Example 550, [(1~{R},2~{R},4~{S})-2-amino-7-azabicyclo [2.2.1]heptan-7-yl]-[2-[1-(cyclopropylmethyl)-6-(2-methylphenyl)pyrrolo [2,3-b]pyridin-2-yl]-5-methoxy-3-methylimidazo [1,2-a]pyridin-7-yl]methanone] | 1850
3-[(1~{R})-1-[2-[7- [(1~{R},2~{R},4~{S})-2- amino-7- azabicyclo[2.2.1]heptane-7- carbonyl]-3-cyclopropyl-5- methoxyimidazo [1,2-a]pyridin-2-yl]-1- (cyclopropylmethyl)pyrrolo [2,3-b]pyridin-6-yl]ethyl]-1- [(6-methoxypyridin-2- yl)methyl]-1-methylurea [Example 219] | 124
CCc1ccc2cc(-c3nc4cc(C(=O)N5[C@H]6CC[C@@H]5[C@H](N)C6)cc(OC)n4c3C)n(Cc3ccncc3)c2n1 [Example 507, [(1~{R},2~{R},4~{S})-2-amino-7-azabicyclo [2.2.1]heptan-7-yl]-[2-[6-ethyl-1-(pyridin-4-ylmethyl)pyrrolo[2,3-b]pyridin-2-yl]-5-methoxy-3-methylimidazo[1,2-a]pyridin-7-yl]methanone] | 152
COc1cc(C(=O)N2CCC[C@@H](N)C2)cc2nc(-c3cc4ccc(CCC(=O)N(C)C)nc4n3CC3CC3)c(C)n12 [Example 532, 3-[2-[7-[(3~{R})-3-aminopiperidine-1-carbonyl]-5-methoxy-3-methylimidazo[1,2-a]pyridin-2-yl]-1-(cyclopropylmethyl)pyrrolo[2,3-b]pyridin-6-yl]-~{N},~{N}-dimethylpropanamide] | 1480
COc1cc(C(=O)N2CCC[C@@H](N)C2)cc2nc(-c3cc4ccc([C@@H](C)NC(=O)OC5CCCC5)nc4n3CC3CC3)c(C)n12 [Example 255, cyclopentyl~{N}-[(1~{R})-1-[2-[7-[(3~{R})-3-aminopiperidine-1-carbonyl]-5-methoxy-3-methylimidazo[1,2-a]pyridin-2-yl]-1-(cyclopropylmethyl)pyrrolo [2,3-b]pyridin-6-yl]ethyl] carbamate] | 286
